≈ marks a conversion by molar mass, not a printed value. Where “and” joins values, the source holds several entries; their conditions need not be identical. Equal values may be shown once.
Legend:
BChE from human serum = BChE from human serum (Homo sapiens, UniProt P06276); conditions: screened at 10 μM; n.i. = no inhibition
Protocol: (§1) Herein, a number of newly and previously synthesized 3-benzazecine analogs, including either allene (Figure 1, scaffold A) or 6- and 8-ylidene (B and C) derivatives, were firstly assayed as inhibitors of AChE, BChE, and MAOs at 10 μM concentration.
(§2) Inhibition of human recombinant AChE (2770 U/mg) or BChE from human serum (50 U/mg) was determined as described using the Ellman spectrophotometric method in a 96-well plate procedure. Briefly, test compounds were incubated in phosphate buffer pH 8.0 in the presence of the enzyme and 5,5′-dithiobis-(2-nitrobenzoic acid) (DTNB) as the chromophoric reagent. Incubation samples were made in 96-well, flat-bottomed transparent polystyrene plates (Greiner Bio-One, Kremsmünster, Austria), at 25 °C for 20 min, and read at 412 nm using an Infinite M1000 Pro plate reader (Tecan, Cernusco s.N., Italy). For inhibition kinetics, four concentrations of compound 3e (ranging from 0 to 15 μM), and six concentrations of acetylthiocholine (from 33 to 200 μM) were used. Inhibition data and kinetics were obtained as means ± SD from 3 independent experiments, using GraphPad Prism (version 5.00 for Windows; GraphPad Software, San Diego, CA, USA).

human recombinant AChE = human recombinant AChE (Homo sapiens, UniProt P22303); conditions: for IC50: read-out: hAChE half-maximal inhibitory concentration, mean ± SD of three independent measurements, unit from b17 (low μM range)
Chain of human recombinant AChE (P22303 32-614): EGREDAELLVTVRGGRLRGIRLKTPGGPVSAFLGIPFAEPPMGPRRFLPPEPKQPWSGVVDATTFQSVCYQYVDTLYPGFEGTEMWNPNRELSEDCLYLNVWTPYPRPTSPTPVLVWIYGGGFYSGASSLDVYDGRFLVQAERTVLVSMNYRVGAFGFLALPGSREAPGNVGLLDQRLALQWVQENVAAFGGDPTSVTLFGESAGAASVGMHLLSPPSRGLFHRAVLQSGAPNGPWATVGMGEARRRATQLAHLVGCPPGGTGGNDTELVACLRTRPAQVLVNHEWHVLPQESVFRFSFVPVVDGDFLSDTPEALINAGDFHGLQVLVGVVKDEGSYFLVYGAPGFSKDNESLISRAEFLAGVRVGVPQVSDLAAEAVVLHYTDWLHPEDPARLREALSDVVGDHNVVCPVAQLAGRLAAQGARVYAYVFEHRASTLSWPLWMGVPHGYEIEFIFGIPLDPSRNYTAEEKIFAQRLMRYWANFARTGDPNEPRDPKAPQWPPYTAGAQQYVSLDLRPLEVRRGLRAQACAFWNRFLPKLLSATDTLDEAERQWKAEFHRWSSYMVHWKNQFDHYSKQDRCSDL
Protocol: as §1, §2

[1] = target: T1, human recombinant monoamine oxidase A (Homo sapiens, UniProt P21397); experiment: Inhibition of MAO-A, kynuramine fluorescence assay; type: biochemical; conditions: mean ± SD
T1 construct: purchased Sigma Aldrich; host or cells: baculovirus infected insect cells (microsomes)
T1 sequence (P21397 1-527): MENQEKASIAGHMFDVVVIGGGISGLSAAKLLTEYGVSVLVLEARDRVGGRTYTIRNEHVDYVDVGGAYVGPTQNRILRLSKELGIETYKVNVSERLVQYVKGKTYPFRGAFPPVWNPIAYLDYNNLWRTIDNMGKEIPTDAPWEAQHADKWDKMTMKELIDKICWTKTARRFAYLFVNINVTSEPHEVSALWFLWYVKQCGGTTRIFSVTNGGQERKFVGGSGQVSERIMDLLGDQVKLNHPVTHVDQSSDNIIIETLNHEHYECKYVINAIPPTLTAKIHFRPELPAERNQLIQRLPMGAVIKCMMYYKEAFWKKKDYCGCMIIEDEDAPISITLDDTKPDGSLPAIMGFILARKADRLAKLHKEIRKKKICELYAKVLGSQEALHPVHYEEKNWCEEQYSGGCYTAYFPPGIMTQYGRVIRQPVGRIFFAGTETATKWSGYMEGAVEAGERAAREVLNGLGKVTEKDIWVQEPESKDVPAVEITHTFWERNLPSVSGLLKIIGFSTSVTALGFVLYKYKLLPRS
Protocol: as §1
(§3) Inhibition of human recombinant monoamine oxidases A (250 U/mg) and B (59 U/mg; microsomes from baculovirus infected insect cells; Sigma Aldrich) was determined as already described, measuring the fluorescence of 4-hydroxyquinoline produced by MAOs in the oxidative deamination of substrate kynuramine. Briefly, compounds were tested in coincubation with MAO and kynuramine in phosphate buffer 390 mOsm pH 7.4, at 37 °C for 30 min. Assays were performed in 96-well black polystyrene plates (Greiner) using the Infinite M1000 Pro plate reader (Tecan). Inhibition data were obtained as means ± SD using GraphPad Prism.

[2] = target: T2, human recombinant monoamine oxidase B (Homo sapiens, UniProt P27338); experiment: Inhibition of MAO-B, kynuramine fluorescence assay; type: biochemical; conditions: mean ± SD
T2 construct: purchased Sigma Aldrich; host or cells: baculovirus infected insect cells (microsomes)
T2 sequence (P27338 1-520): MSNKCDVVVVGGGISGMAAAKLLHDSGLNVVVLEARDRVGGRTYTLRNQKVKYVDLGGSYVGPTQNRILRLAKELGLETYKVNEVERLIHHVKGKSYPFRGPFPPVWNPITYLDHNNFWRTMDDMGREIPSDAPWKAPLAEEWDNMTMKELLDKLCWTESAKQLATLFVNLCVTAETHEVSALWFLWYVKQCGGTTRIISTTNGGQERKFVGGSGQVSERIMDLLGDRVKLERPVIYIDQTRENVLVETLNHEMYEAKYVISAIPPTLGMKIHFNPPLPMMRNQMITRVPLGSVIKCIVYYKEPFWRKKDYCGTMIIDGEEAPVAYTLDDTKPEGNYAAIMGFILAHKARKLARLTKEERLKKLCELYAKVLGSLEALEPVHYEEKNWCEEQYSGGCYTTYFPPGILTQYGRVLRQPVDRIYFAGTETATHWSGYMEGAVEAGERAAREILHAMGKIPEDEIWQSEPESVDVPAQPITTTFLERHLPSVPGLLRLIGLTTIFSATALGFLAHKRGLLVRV
Protocol: as §1, §3

[3] = Kinetic aqueous solubility by U-HPLC
Protocol: Following shaking of the suspension in an orbital shaker at 250 rpm for 2 h, the solution was separated by centrifugation (2500 rpm, 3 min) and filtered. Equal volume of solution was transferred into 1:1 (v/v) mixture of DMSO/PBS. The concentration of compound was determined by U-HPLC and UV detector (255 nm) comparing the peak area of external standard solution. All data were means of 3 independent experiments (± SEM). […] HPLC analyses were performed on an Agilent U-HPLC 1260 Infinity Quaternary LC system (Agilent Technologies, Milan, Italy) (Table 4).

[4] = Hydrolytic stability in water-buffered solution by U-HPLC; conditions: PBS pH 7.4, 0.15 M KCl, 37 °C (table footnote)
Protocol: At appropriate time intervals, samples were withdrawn and analyzed by U-HPLC using a 1290 Infinity Quaternary LC system (Agilent Technologies, Milan, Italy) equipped with autosampler and photodiode array detector. A Phenomenex Kinetex C18 column 2.6 µm (150 × 2.1 mm i.d.) was used as stationary phase. […] Pseudo-first-order rate constants (kobs) for the hydrolysis of the compound were calculated from the slopes of the linear plots of log (% remaining compound) against time.

Chain of BChE from human serum (P06276 29-602): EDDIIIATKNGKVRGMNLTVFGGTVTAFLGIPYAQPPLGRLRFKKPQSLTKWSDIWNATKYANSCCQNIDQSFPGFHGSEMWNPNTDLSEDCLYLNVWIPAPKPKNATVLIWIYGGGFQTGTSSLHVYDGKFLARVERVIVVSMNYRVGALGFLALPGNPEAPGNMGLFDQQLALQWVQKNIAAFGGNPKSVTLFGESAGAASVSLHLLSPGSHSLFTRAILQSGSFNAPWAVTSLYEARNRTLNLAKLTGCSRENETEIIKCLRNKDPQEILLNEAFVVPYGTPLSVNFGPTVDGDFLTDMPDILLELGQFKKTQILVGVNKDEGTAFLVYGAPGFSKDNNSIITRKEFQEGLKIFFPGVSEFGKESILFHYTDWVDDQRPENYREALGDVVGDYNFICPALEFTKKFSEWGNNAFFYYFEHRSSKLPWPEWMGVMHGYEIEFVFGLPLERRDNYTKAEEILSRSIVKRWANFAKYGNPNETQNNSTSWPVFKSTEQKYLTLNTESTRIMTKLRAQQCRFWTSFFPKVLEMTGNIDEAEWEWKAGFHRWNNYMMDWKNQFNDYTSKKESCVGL

SMILES | hBChE inhibition (BChE from human serum) | IC50 (human recombinant AChE) [µM] | hMAO-A % inhibition at 10 μM [1] | hMAO-B % inhibition at 10 μM [2] | Ki (human recombinant AChE; read-out: AChE inhibition, Ki, Lineweaver–Burk inhibition kinetics, acetylthiocholine substrate) | Water solubility relative to 3n ([3]; 3e vs 3n, buffered aqueous solution pH 7.4) [fold] | Solubility ([3]; PBS pH 7.4, 0.15 M KCl, 37 °C, kinetic solubility) [µM] | Hydrolytic half-life [4] [h]
COCC1=C=C(c2ccc(C)cc2)c2cc(OC)c(OC)cc2CCN(C)C=C1C(=O)OC [Compound 3d, Methyl 3-methyl-8-(4-methylphenyl)-10,11-dimethoxy-6-(methoxymethyl)-benzo[d]-3-aza-cyclodeca-4,6,7-triene-5-carboxylate] | n.i. | 19.3 ± 3.3 | (30 ± 4) % | (30 ± 5) % | – | – | – | –
COCC1=C=C(c2ccc(OC)cc2)c2cc(OC)c(OC)cc2CCN(C)C=C1C(=O)OC [Compound 3e, Methyl 3-methyl-10,11-dimethoxy-6-methoxymethyl-8-(4-methoxyphenyl)-benzo[d]-3-aza-cyclodeca-4,6,7-triene-5-carboxylate] | n.i. | 12.2 ± 2.6 | (37 ± 5) % | (23 ± 1) % | 4.9 µM and 4.89 µM | 90 | 17.4 ± 0.7 (≈ 8.1 µg/mL) | 4.5
COCC1=C=C(c2ccc(C)cc2)c2cc(OC)c(OC)cc2CCN(C)C=C1C(C)=O [Compound 3i, 1-(3-Methyl-8-(4-methylphenyl)-10,11-dimethoxy-6-methoxymethyl-benzo[d]-3-aza-cyclodeca-4,6,7-trien-5-yl)ethanone] | n.i. | 32.5 ± 4.4 | (28 ± 1) % | (38 ± 4) % | – | – | – | –
COCC1=C=C(c2ccc(OC)cc2)c2cc(OC)c(OC)cc2CCN(C)C=C1C(C)=O [Compound 3j, 1-(3-Methyl-10,11-dimethoxy-6-methoxymethyl-8-(4-methoxyphenyl)-benzo[d]-3-aza-cyclodeca-4,6,7-trien-5-yl)ethanone] | n.i. | 13.2 ± 0.7 | (29 ± 5) % | (28 ± 5) % | – | – | – | –

— PMC9571408, “Synthesis of Isomeric 3-Benzazecines Decorated with Endocyclic Allene Moiety and Exocyclic Conjugated Double Bond and Evaluation of Their Anticholinesterase Activity” (Molecules, 2022)
